Assays:
[1] = target: Human immunodeficiency virus type 1 reverse transcriptase (Human immunodeficiency virus 1, UniProt Q72547)
Description: Inhibition of RNase H activity of recombinant HIV1 reverse transcriptase using poly(dC)-[3H]poly(rG) as substrate

[2] = target: Human immunodeficiency virus type 1 integrase (Human immunodeficiency virus 1, UniProt Q7ZJM1)
Chain of Human immunodeficiency virus type 1 integrase (Q7ZJM1 whole entry): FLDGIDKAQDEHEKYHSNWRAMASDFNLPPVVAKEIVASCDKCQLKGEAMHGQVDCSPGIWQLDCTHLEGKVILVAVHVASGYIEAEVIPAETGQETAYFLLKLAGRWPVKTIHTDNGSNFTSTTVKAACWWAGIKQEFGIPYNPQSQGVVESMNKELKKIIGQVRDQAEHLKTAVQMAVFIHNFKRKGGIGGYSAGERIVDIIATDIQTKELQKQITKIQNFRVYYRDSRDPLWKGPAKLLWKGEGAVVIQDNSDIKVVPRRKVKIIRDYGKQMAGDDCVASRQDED
Description: Inhibition of strand transfer activity of recombinant HIV1 integrase using 5'-end-labeled 21-mer double-stranded DNA as substrate after 60 mins by electrochemiluminescent plate-based assay

O=C(/C=C/c1cccn1Cc1ccc(Cl)cc1)CC(=O)C(=O)O was tested, and the IC50 [1] was 5 µM and the IC50 [2] was 4.1 µM.
CCOC(=O)C(=O)CC(=O)/C=C/c1cccn1Cc1ccc(C)cc1 gave an IC50 [1] of 7.3 µM.
For CCOC(=O)C(=O)CC(=O)/C=C/c1cccn1Cc1ccc(F)cc1F, the IC50 [1] was 19 µM and the IC50 [2] was 1 µM.
O=C(/C=C/c1cccn1Cc1cc(F)cc(F)c1)CC(=O)C(=O)O showed an IC50 [1] of 14 µM and an IC50 [2] of 1.2 µM.
O=C(/C=C/c1cccn1Cc1ccc(Cl)cc1Cl)CC(=O)C(=O)O showed an IC50 [1] of 7 µM and an IC50 [2] of 4.9 µM.
In the case of O=C(/C=C/c1cccn1Cc1c(Cl)cccc1Cl)CC(=O)C(=O)O, the IC50 [1] is reported as 28 µM and the IC50 [2] is reported as 0.17 µM.
Compound O=C(/C=C/c1cccn1Cc1cc(Cl)cc(Cl)c1)CC(=O)C(=O)O has an IC50 [1] of 30 µM and an IC50 [2] of 0.97 µM.
O=C(/C=C/c1cccn1Cc1cccc(Cl)c1)CC(=O)C(=O)O showed an IC50 [1] of 9 µM and an IC50 [2] of 0.31 µM.
N#Cc1ccccc1Cn1cccc1/C=C/C(=O)CC(=O)C(=O)O was tested, and the IC50 [1] was 6 µM and the IC50 [2] was 6 µM.
In the case of N#Cc1cccc(Cn2cccc2/C=C/C(=O)CC(=O)C(=O)O)c1, the IC50 [1] is reported as 5 µM and the IC50 [2] is reported as 0.75 µM.
In the case of N#Cc1ccc(Cn2cccc2/C=C/C(=O)CC(=O)C(=O)O)cc1, the IC50 [1] is reported as 6 µM and the IC50 [2] is reported as 1.7 µM.
In the case of COc1ccccc1Cn1cccc1/C=C/C(=O)CC(=O)C(=O)O, the IC50 [1] is reported as 16 µM and the IC50 [2] is reported as 0.53 µM.
In the case of CCOc1ccccc1Cn1cccc1/C=C/C(=O)CC(=O)C(=O)O, the IC50 [1] is reported as 64 µM and the IC50 [2] is reported as 0.31 µM.
Compound Cc1cc(C)cc(Cn2cccc2/C=C/C(=O)CC(=O)C(=O)O)c1 has an IC50 [1] of 16 µM and an IC50 [2] of 1.6 µM.
For O=C(/C=C/c1cccn1Cc1cccc(F)c1F)CC(=O)C(=O)O, the IC50 [1] was 6 µM and the IC50 [2] was 0.059 µM.
With O=C(/C=C/c1cccn1Cc1ccc(F)cc1F)CC(=O)C(=O)O the IC50 [1] was 10 µM and the IC50 [2] was 0.042 µM.
In the case of O=C(/C=C/c1cccn1Cc1cc(F)ccc1F)CC(=O)C(=O)O, the IC50 [1] is reported as 5 µM and the IC50 [2] is reported as 0.052 µM.
O=C(/C=C/c1cccn1Cc1c(F)cccc1F)CC(=O)C(=O)O gave an IC50 [1] of 50 µM and an IC50 [2] of 0.15 µM.
For O=C(/C=C/c1cccn1Cc1ccc(F)c(F)c1)CC(=O)C(=O)O, the IC50 [1] was 86 µM and the IC50 [2] was 1.6 µM.
CCOC(=O)C(=O)CC(=O)/C=C/c1cccn1Cc1cc(F)ccc1F showed an IC50 [1] of 9 µM and an IC50 [2] of 0.45 µM.
With CCOC(=O)C(=O)CC(=O)/C=C/c1cccn1Cc1c(F)cccc1F the IC50 [1] was 19 µM and the IC50 [2] was 4 µM.
Compound CCOC(=O)C(=O)CC(=O)/C=C/c1cccn1Cc1cc(F)cc(F)c1 has an IC50 [1] of 5 µM and an IC50 [2] of 0.49 µM.
For CCOC(=O)C(=O)CC(=O)/C=C/c1cccn1Cc1ccc(Cl)cc1Cl, the IC50 [1] was 9 µM and the IC50 [2] was > 111 µM.
CCOC(=O)C(=O)CC(=O)/C=C/c1cccn1Cc1c(Cl)cccc1Cl showed an IC50 [1] of 22 µM and an IC50 [2] of 1.7 µM.
Compound CCOC(=O)C(=O)CC(=O)/C=C/c1cccn1Cc1cc(Cl)cc(Cl)c1 has an IC50 [2] of 8 µM.
Cc1ccccc1Cn1cccc1/C=C/C(=O)CC(=O)C(=O)O gave an IC50 [1] of 26 µM and an IC50 [2] of 0.17 µM.
Cc1cccc(Cn2cccc2/C=C/C(=O)CC(=O)C(=O)O)c1 was tested, and the IC50 [1] was 4.6 µM and the IC50 [2] was 1.3 µM.
With O=C(/C=C/c1cccn1Cc1ccccc1F)CC(=O)C(=O)O the IC50 [1] was 6.4 µM and the IC50 [2] was 0.98 µM.
For O=C(/C=C/c1cccn1Cc1cccc(F)c1)CC(=O)C(=O)O, the IC50 [1] was 14 µM and the IC50 [2] was 0.92 µM.
With CCOC(=O)C(=O)CC(=O)/C=C/c1cccn1Cc1ccccc1F the IC50 [1] was 6.3 µM and the IC50 [2] was 1 µM.
For CCOC(=O)C(=O)CC(=O)/C=C/c1cccn1Cc1cccc(F)c1, the IC50 [1] was 9 µM and the IC50 [2] was 11 µM.
For CCOC(=O)C(=O)CC(=O)/C=C/c1cccn1Cc1cccc(Cl)c1, the IC50 [1] was 19 µM and the IC50 [2] was 6 µM.
In the case of CCOC(=O)C(=O)CC(=O)/C=C/c1cccn1Cc1ccccc1C#N, the IC50 [1] is reported as 32 µM and the IC50 [2] is reported as 9 µM.
In the case of CCOC(=O)C(=O)CC(=O)/C=C/c1cccn1Cc1cccc(C#N)c1, the IC50 [1] is reported as 5 µM and the IC50 [2] is reported as 13 µM.
With CCOC(=O)C(=O)CC(=O)/C=C/c1cccn1Cc1ccc(C#N)cc1 the IC50 [1] was 8 µM and the IC50 [2] was > 111 µM.
With CCOC(=O)C(=O)CC(=O)/C=C/c1cccn1Cc1ccccc1OC the IC50 [1] was > 100 µM and the IC50 [2] was 23 µM.
In the case of CCOC(=O)C(=O)CC(=O)/C=C/c1cccn1Cc1ccccc1OCC, the IC50 [1] is reported as > 100 µM and the IC50 [2] is reported as 12 µM.
With CCOC(=O)C(=O)CC(=O)/C=C/c1cccn1Cc1cc(C)cc(C)c1 the IC50 [1] was 6 µM and the IC50 [2] was 19 µM.
Compound CCOC(=O)C(=O)CC(=O)/C=C/c1cccn1Cc1cccc(F)c1F has an IC50 [1] of 8 µM and an IC50 [2] of 0.53 µM.
Compound CCOC(=O)C(=O)CC(=O)/C=C/c1cccn1Cc1ccccc1C has an IC50 [1] of 3 µM and an IC50 [2] of 32 µM.
For CCOC(=O)C(=O)CC(=O)/C=C/c1cccn1Cc1cccc(C)c1, the IC50 [1] was 9.6 µM and the IC50 [2] was 8 µM.
CCOC(=O)C(=O)CC(=O)/C=C/c1cccn1Cc1ccc(Cl)cc1 showed an IC50 [1] of 8 µM.
For COc1ccc(Cn2cccc2/C=C/C(=O)CC(=O)C(=O)O)cc1, the IC50 [1] was 3 µM.
Work on O=C(/C=C/c1cccn1Cc1ccc(F)cc1)CC(=O)C(=O)O yielded an IC50 [1] of 2.5 µM and an IC50 [2] of 0.026 µM.
Work on O=C(/C=C/c1cccn1Cc1ccccc1)CC(=O)C(=O)O yielded an IC50 [1] of 15 µM.
Cc1ccc(Cn2cccc2/C=C/C(=O)CC(=O)C(=O)O)cc1 showed an IC50 [1] of 17 µM.
CCOC(=O)C(=O)CC(=O)/C=C/c1cccn1Cc1ccc(OC)cc1 gave an IC50 [1] of 6.7 µM.
